Patent publication US7727977B2, “Kynurenine 3-hydroxylase inhibitors for the treatment of diabetes” (Merck Patent Gesellschaft mit beschrankter Haftung, priority 2003, dated 2010)
Marks after values point to notes of the source that are not given here.

Tests used:
kynurenine 3-hydroxylase = molecular target: T1, kynurenine 3-hydroxylase (Rattus norvegicus, UniProt O88867); test: Inhibitory activity on kynurenine 3-hydroxylase in rat liver homogenate; format: biochemical; settings: test concentration not given
T1 construct: incubating 10 μL of the homogenate with NADPH (2 mM), kynurenine (100 μM); from tissue; host or cells: rat liver (pellet of the homogenate, resuspended)
T1 sequence (O88867 whole entry): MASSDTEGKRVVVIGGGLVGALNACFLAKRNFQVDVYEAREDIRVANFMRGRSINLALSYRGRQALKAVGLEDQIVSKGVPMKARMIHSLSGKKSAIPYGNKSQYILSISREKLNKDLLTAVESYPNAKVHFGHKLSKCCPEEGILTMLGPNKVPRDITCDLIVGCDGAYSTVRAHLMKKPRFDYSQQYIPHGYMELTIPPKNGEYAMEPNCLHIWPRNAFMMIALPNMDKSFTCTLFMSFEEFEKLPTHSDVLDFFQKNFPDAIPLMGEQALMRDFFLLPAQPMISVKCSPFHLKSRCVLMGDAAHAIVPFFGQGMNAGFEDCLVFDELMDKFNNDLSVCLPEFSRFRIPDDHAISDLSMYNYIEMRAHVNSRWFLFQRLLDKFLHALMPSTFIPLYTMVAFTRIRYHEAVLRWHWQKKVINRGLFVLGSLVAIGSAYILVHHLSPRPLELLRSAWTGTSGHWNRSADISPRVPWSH
Description: Study of the Inhibitory Activity on Kynurenine 3-hydroxylase in Rat Liver
Rat livers are homogenised (1:8 weight/volume) in a buffer solution comprising: • 0.25 M sucrose • 50 mM pH 7.4 Tris; • 1 mM EDTA; and • 1 mM DTT.
The homogenates are centrifuged for 10 minutes at 12 000 rpm. The pellets are resuspended in the buffer solution described above (1:2 weight/volume).
The kynurenine 3-hydroxylase inhibition is determined by incubating 10 μL of the homogenate with NADPH (2 mM), kynurenine (100 μM) and various concentrations of the test compounds in a final volume of 100 μL at 37° C. for 5 minutes.
The compounds are tested at concentrations of between 1 μM and 300 μM. 3,4-Dimethoxy-N-[4-(3-nitrophenyl)thiazol-2-yl]benzenesulfonamide is a compound from the company Hoffmann-LaRoche (Basle, see J. Med. Chem., 40 (1997), 4738). 30H-Kynurenine was tested according to the protocol described by Carpendo et al. (Neuroscience, 61 (1994), 237-244).
Each of the experiments is repeated once and the IC50 values (in μmol/L) are calculated and given in the form of a mean of these two experiments.
Results concerning representative examples of family Ih are given in Table II below, in which is indicated the measurement of the percentage of remaining kynurenine 3-hydroxylase activity relative to the control (100%).

primary hepatocytes [1] = test: Hepatic glucose production, basal lactate/pyruvate 2 hours, in primary hepatocytes; format: cell-based, Wistar rats; parameters: Hepatic glucose production: unit not given here; settings: for hepatic glucose production in vitro (result in words): primary rat hepatocytes, summary of Tables III and IV; for HGP % of control: Basal Lact/Pyr 2 hours
Description: (§1) Study of the Effect on Glucose Production by the Liver Materials and Method:
After washing in pH 7.4 PBS buffer, the cells are incubated for two hours at 37° C. in a Krebs buffer free of glucose and of insulin, containing lactate/pyruvate (10/1 mM) in the presence or absence of the test compounds. 10 μM MICA (5-methoxyindole-2-carboxylic acid) is used as reference substance. Two identical experiments are performed (Table III-2).
The protein assay is performed on the rest of the incubation medium via the Lowry method (BIO-RAD Dc protein assay, BIO-RAD 5000116).
(§2) The results are expressed as nmoles of glucose produced per […] of proteins. The statistical test used is the t test.

[2] = test system: perfused isolated pancreases from N0 STZ diabetic rats; test: Secretion of insulin and glucagon in perfused isolated pancreases from N0 STZ diabetic rats; format: cell-based; settings: absence of glucose, then 16.5 mM glucose; diabetic rat pancreas
Description: Study of the Effect on the Secretion of the Pancreatic Hormones Insulin and Glucagon, in N0STZ Diabetic Rats
The results are expressed as the mean±SEM (standard error of mean) of several experiments. The statistical test used is the Scheffé test.

primary hepatocytes [3] = test: Hepatic glucose production stimulated by AMPc/DEX in primary hepatocytes; format: cell-based, Wistar rats
Description: as §1
The hepatocytes are isolated from the liver of Wistar rats fasted for 24 hours, according to the method described in Methods Cell Biol., 13 (1975), 29-83.
1) The hepatocytes are cultured for 16 to 18 hours in DMEM medium in the presence of AMP cyclase/dexamethasone at respective concentrations of 5×10^−5 M and 5×10^−7 M, with preincubation of the products at the test doses. After washing in pH 7.4 PBS buffer, the cells are incubated for three hours at 37° C. in a Krebs/AMPc/DEX buffer at the abovementioned concentrations. 0.1 μM insulin is used as reference substance. Two identical experiments are performed (Table III-1).
Quantification of the glucose is performed via a colorimetric method using glucose oxidase (IL test™ Glucose, Monarch 181633-80). The protein assay is performed on the rest of the incubation medium via the Lowry method (BIO-RAD Dc protein assay, BIO-RAD 5000116).
as §2

Molecule	Remaining kynurenine 3-hydroxylase activity (% of control) (kynurenine 3-hydroxylase) [%]	further results
CCOC(=O)C(CC(=O)c1ccccc1)Sc1ccccc1 (stereo not drawn) [Ih-9, ethyl 2-phenylthio-4-phenyl-4-oxobutanoate]	80.8	
N[C@@H](Cc1c[nH]c2ccccc12)C(=O)O [Tryptophan, reference compound]		hepatic glucose production in vitro (result in words) (primary hepatocytes [1]): powerful inhibitors of hepatic glucose production in vitro; glucagon secretion (result in words) [2]: stimulates glucagon secretion in a glucose-dependent manner; insulin secretion (result in words) [2]: stimulates insulin secretion in a glucose-dependent manner
2-(2′-naphthylthio)-4-phenyl-4-oxobutanoic acid [Ih-1]	23.2	HGP % of control (primary hepatocytes [3]; 1 μM): 103 % of control; HGP % of control (primary hepatocytes [3]; 10 μM): 83 % of control; HGP % of control (primary hepatocytes [3]; 100 μM): 15 % of control; HGP % of control (primary hepatocytes [1]; 1 μM): 10 % of control; HGP % of control (primary hepatocytes [1]; 10 μM): 127 % of control; HGP % of control (primary hepatocytes [1]; 100 μM): 95 % of control; hepatic glucose production in vitro (result in words) (primary hepatocytes [1]): powerful inhibitors of hepatic glucose production in vitro
COc1ccc(C(=O)CC(SCc2ccccc2)C(=O)O)cc1 (stereo not drawn) [Ih-24, 2-benzylthio-4-(4′-methoxyphenyl)-4-oxobutanoic acid]	18.9	
COc1ccc(C(=O)CC(Sc2ccc(F)cc2)C(=O)O)cc1 (stereo not drawn) [Ih-18, 2-(4′-fluorophenylthio)-4-(4′-methoxyphenyl)-4-oxobutanoic acid]	6.6	
CCOC(=O)C(CC(=O)c1ccccc1)Sc1ccc(F)cc1 (stereo not drawn) [Ih-10, ethyl 2-(4′-fluorophenylthio)-4-phenyl-4-oxobutanoate]	66.7	
COc1ccc(C(=O)CC(Sc2ccc(Cl)cc2)C(=O)O)cc1 (stereo not drawn) [Ih-19, 2-(4′-chlorophenylthio)-4-(4′-methoxyphenyl)-4-oxobutanoic acid]	4.1	
O=C(CC(Sc1ccccc1)C(=O)O)c1ccccc1 (stereo not drawn) [Ih-2, 2-phenylthio-4-phenyl-4-oxobutanoic acid]	70.4	
COc1ccc(C(=O)CC(SC2CCCCC2)C(=O)O)cc1 (stereo not drawn) [Ih-23, 2-cyclohexylthio-4-(4′-methoxyphenyl)-4-oxobutanoic acid]	38.1	
2-(2′-naphthylthio)-4-(4′-chlorophenyl)-4-oxobutanoic acid [Ih-30]	24.3	
CCOC(=O)C(CC(=O)c1ccccc1)Sc1ccc(C)cc1 (stereo not drawn) [Ih-12, ethyl 2-(4′-methylphenylthio)-4-phenyl-4-oxobutanoate]	63.3	
Nc1ccccc1C(=O)CC(N)C(=O)O (stereo not drawn) [Kynurenine]		hepatic glucose production in vitro (result in words) (primary hepatocytes [1]): powerful inhibitors of hepatic glucose production in vitro; glucagon secretion (result in words) [2]: stimulated; insulin secretion (result in words) [2]: stimulated
O=C(CC(SCc1ccccc1)C(=O)O)c1ccccc1 (stereo not drawn) [Ih-8, 2-benzylthio-4-phenyl-4-oxobutanoic acid]	68.6	
COc1ccc(S(=O)(=O)Nc2nc(-c3cccc([N+](=O)[O-])c3)cs2)cc1OC [Compound k, 3,4-dimethoxy-N-[4-(3-nitrophenyl)thiazol-2-yl]benzenesulfonamide, reference compound]		glucagon secretion (result in words) [2]: stimulation; insulin secretion (result in words) [2]: stimulation
O=C(CC(Sc1ccc(Cl)cc1)C(=O)O)c1ccc(Cl)cc1 (stereo not drawn) [Ih-27, 2-(4′-chlorophenylthio)-4-(4′-chlorophenyl)-4-oxobutanoic acid]	34.9	
O=C(CC(Sc1ccc(F)cc1)C(=O)O)c1ccc(Cl)cc1 (stereo not drawn) [Ih-26, 2-(4′-fluorophenylthio)-4-(4′-chlorophenyl)-4-oxobutanoic acid]	55.5	
ethyl 2-(2′-naphthylthio)-4-phenyl-4-oxobutanoate [Ih-14]	30.0	

Molecule	Remaining kynurenine 3-hydroxylase activity (% of control) (kynurenine 3-hydroxylase) [%]	further results
O=C(CC(Sc1ccc(F)cc1)C(=O)O)c1ccccc1 (stereo not drawn) [Ih-3, 2-(4′-fluorophenylthio)-4-phenyl-4-oxobutanoic acid]	50.4	
O=C(O)c1cc(=O)c2ccccc2[nH]1 [Kynurenic acid]		glucagon secretion (result in words) [2]: stimulates; insulin secretion (result in words) [2]: stimulates the secretion of insulin
Cc1ccc(SC(CC(=O)c2ccc(Cl)cc2)C(=O)O)cc1 (stereo not drawn) [Ih-28, 2-(4′-methylphenylthio)-4-(4′-chlorophenyl)-4-oxobutanoic acid]	50.5	
CCOC(=O)C(CC(=O)c1ccccc1)SC1CCCCC1 (stereo not drawn) [Ih-15, ethyl 2-cyclohexylthio-4-phenyl-4-oxobutanoate]	95.0	
CCOC(=O)C(CC(=O)c1ccccc1)SCc1ccccc1 (stereo not drawn) [Ih-16, ethyl 2-benzylthio-4-phenyl-4-oxobutanoate]	84.4	
CCOC(=O)C(CC(=O)c1ccccc1)Sc1ccc(OC)cc1 (stereo not drawn) [Ih-13, ethyl 2-(4′-methoxyphenylthio)-4-phenyl-4-oxobutanoate]	55.2	
O=C(C[C@@H](Cc1ccccc1)C(=O)O)c1ccc(Cl)c(Cl)c1 (racemic) [Compound j, (R,S)-2-benzyl-4-(3′,4′-dichlorophenyl)-4-oxobutanoic acid]		Inhibition of hepatic glucose production (primary hepatocytes [1]; 1 μM): 30** %; Inhibition of hepatic glucose production (primary hepatocytes [1]; 10 μM): 51** %; Inhibition of hepatic glucose production (primary hepatocytes [1]; 100 μM): 65** %; hepatic glucose production in vitro (result in words) (primary hepatocytes [1]): powerful inhibitors of hepatic glucose production in vitro
COc1ccc(C(=O)CC(Sc2ccccc2)C(=O)O)cc1 (stereo not drawn) [Ih-17, 2-phenylthio-4-(4′-methoxyphenyl)-4-oxobutanoic acid]	16.0	
O=C(CC(SC1CCCCC1)C(=O)O)c1ccccc1 (stereo not drawn) [Ih-7, 2-cyclohexylthio-4-phenyl-4-oxobutanoic acid]	81.3	
CCOC(=O)C(CC(=O)c1ccccc1)Sc1ccc(Cl)cc1 (stereo not drawn) [Ih-11, ethyl 2-(4′-chlorophenylthio)-4-phenyl-4-oxobutanoate]	44.6	
O=C(CC(Sc1ccc(Cl)cc1)C(=O)O)c1ccccc1 (stereo not drawn) [Ih-4, 2-(4′-chlorophenylthio)-4-phenyl-4-oxobutanoic acid]	34.8	
O=C(CC(Sc1ccccc1)C(=O)O)c1ccc(Cl)cc1 (stereo not drawn) [Ih-25, 2-phenylthio-4-(4′-chlorophenyl)-4-oxobutanoic acid]	67.6	
COc1ccc(SC(CC(=O)c2ccc(OC)cc2)C(=O)O)cc1 (stereo not drawn) [Ih-21, 2-(4′-methoxyphenylthio)-4-(4′-methoxyphenyl)-4-oxobutanoic acid]	17.4	
COc1ccc(C(=O)CC(Sc2ccc(C)cc2)C(=O)O)cc1 (stereo not drawn) [Ih-20, 2-(4′-methylphenylthio)-4-(4′-methoxyphenyl)-4-oxobutanoic acid]	13.3	
Cc1ccc(SC(CC(=O)c2ccccc2)C(=O)O)cc1 (stereo not drawn) [Ih-5, 2-(4′-methylphenylthio)-4-phenyl-4-oxobutanoic acid]	45.4	
O=C(C[C@@H](Cc1ccccc1)C(=O)O)c1ccc(F)cc1 [Compound i, (R)-2-benzyl-4-(4-fluorophenyl)-4-oxobutanoic acid]		Hepatic glucose production (primary hepatocytes [1]; 1 μM): 88 ± 7; Hepatic glucose production (primary hepatocytes [1]; 10 μM): 73 ± 4; Hepatic glucose production (primary hepatocytes [1]; 100 μM): 39 ± 3; hepatic glucose production in vitro (result in words) (primary hepatocytes [1]): powerful inhibitors of hepatic glucose production in vitro; glucagon secretion (result in words) [2]: stimulation; insulin secretion (result in words) [2]: stimulation
